Here are results for 20 molecules from US9676782B2, “Substituted pyrazolo[1,5-a]pyrazines as negative allosteric modulators of metabotropic glutamate receptor 3” (Vanderbilt University, priority 2014, dated 2017).

Structures are written as SMILES. Like-named read-outs stand apart in the source and are kept apart here.

The target of one test is rat mGlu3 (Rattus norvegicus (Rat), UniProt P31422). As to the kind of experiment: mGlu3 Ca2+ flux assay. To be noted: for IC50: read-out: rat mGlu3 IC50; for remaining activity at 30 µM: amplitude of response at 30 μM test compound as % of maximal response to glutamate, read-out: rat mGlu3 Glu max (%). It is filed as cell-based. Put shortly:
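Cells expressing rat mGlu3 were grown overnight at 37° C. under 5% CO2, then loaded with dye. After dye removal they received 20 μL of assay buffer and sat 10 minutes at room temperature. Calcium flux was read on a Hamamatsu FDSS7000, and fluorescence was expressed as fold over basal and normalized to the maximal glutamate response.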

In a further test the target is rat mGlu5 (Rattus norvegicus (Rat), UniProt P31424). Briefly: mGlu5 Ca2+ flux assay. It is filed as cell-based. To be noted: for Fold selectivity (mGlu3 vs. mGlu5): ratio of rat mGlu5 EC50 or IC50 to rat mGlu3 IC50; for Emax at 30 µM: read-out: rat mGlu5 Glu max (%). Put shortly: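 Transfected cells grown overnight at 37° C/5% CO2, dye-loaded, then 5 min in assay buffer at RT before Ca2+ flux read on FDSS7000. Fluorescence as F/F0 fold over basal, normalized to maximal glutamate response; EC50 from unconstrained 4-parameter logistic fit, triplicates weighted evenly.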
rat mGlu5, sequence (P31424 21-1203): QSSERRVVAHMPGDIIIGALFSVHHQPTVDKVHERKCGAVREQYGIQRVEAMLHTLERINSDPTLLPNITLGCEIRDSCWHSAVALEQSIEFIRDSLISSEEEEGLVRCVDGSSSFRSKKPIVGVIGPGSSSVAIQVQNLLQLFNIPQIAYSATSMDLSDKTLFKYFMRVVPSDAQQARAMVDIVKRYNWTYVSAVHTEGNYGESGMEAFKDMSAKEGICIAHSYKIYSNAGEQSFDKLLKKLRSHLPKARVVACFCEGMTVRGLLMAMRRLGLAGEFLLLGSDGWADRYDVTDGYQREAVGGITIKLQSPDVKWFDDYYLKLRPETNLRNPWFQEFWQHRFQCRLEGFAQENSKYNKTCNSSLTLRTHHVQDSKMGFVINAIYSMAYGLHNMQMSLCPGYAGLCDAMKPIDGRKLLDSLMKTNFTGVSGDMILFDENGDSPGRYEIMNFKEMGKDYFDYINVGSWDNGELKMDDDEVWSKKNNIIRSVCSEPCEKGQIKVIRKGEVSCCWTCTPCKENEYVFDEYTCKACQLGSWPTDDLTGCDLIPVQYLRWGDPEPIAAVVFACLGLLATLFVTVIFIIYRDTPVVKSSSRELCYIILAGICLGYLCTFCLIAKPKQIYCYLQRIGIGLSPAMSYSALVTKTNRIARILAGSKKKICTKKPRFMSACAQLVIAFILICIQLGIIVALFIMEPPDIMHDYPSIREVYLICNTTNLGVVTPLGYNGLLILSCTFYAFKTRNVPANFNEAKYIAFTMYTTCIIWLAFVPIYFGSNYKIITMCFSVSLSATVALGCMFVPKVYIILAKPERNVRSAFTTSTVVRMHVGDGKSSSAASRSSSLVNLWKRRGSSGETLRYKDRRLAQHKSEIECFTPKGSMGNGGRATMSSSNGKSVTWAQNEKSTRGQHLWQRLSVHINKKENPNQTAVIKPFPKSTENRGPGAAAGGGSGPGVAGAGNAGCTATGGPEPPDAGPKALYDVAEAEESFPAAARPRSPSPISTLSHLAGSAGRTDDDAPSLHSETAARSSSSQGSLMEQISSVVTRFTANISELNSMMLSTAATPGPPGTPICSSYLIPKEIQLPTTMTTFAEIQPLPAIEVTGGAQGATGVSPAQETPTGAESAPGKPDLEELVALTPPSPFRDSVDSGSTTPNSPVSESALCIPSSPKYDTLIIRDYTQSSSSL

[1] abbreviates: NAM potency, decrease of glutamate EC80 response, >30,000 = no measurable activity, >10,000 = no plateau.
Setting [2] is: read-out: rat mGlu5 EC50 or IC50.
Setting [3] is: PAM, amplitude of response at 30 μM test compound as % of maximal response to glutamate.

rat mGlu3, sequence (P31422 23-879): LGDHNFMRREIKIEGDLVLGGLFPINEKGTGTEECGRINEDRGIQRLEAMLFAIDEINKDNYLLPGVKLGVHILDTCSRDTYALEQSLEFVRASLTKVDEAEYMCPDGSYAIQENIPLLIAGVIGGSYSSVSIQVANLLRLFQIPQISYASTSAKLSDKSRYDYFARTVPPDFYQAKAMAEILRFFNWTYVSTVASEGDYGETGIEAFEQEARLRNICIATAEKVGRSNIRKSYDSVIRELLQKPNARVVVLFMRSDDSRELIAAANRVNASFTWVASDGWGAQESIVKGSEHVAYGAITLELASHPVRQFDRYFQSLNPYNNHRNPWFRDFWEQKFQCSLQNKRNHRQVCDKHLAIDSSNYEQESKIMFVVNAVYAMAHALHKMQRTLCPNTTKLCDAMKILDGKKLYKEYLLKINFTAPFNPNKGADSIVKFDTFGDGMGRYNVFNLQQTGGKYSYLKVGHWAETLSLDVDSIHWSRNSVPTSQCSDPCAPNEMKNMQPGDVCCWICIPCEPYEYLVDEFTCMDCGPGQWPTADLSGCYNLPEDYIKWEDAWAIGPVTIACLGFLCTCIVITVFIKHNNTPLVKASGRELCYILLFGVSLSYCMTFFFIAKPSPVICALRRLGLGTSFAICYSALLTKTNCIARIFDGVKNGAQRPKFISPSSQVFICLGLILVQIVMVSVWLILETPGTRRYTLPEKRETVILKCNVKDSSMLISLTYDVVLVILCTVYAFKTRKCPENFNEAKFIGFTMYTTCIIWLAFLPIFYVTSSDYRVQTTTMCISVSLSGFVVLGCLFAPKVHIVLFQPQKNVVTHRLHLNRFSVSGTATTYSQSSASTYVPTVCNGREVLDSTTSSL

Regarding `N#Cc1cccc(NCc2cc3n(n2)CCN(c2ccc(F)cc2)C3=O)c1` [Compound 11, 3-(((5-(4-fluorophenyl)-4-oxo-4,5,6,7-tetrahydropyrazolo[1,5-a]pyrazin-2-yl)methyl)amino)benzonitrile], on rat mGlu3 (setting [1]), the IC50 came to 1250 nM. Moreover, on rat mGlu3, the remaining activity at 30 µM came out at 1.48%. Also, the “Fold selectivity (mGlu3 vs. mGlu5)” value at rat mGlu5 is over 24. The EC50 at rat mGlu5 (setting [2]) was over 30 µM.
For the molecule `CC(Nc1ccccc1)c1cc2n(n1)CCN(c1ccc(F)cc1)C2=O` (centres unmarked) [Compound 170, 5-(4-fluorophenyl)-2-(1-(phenylamino)ethyl)-6,7-dihydropyrazolo[1,5-a]pyrazin-4(5H)-one], at rat mGlu3 (setting [1]), the IC50 came to 2850 nM. In addition, the remaining activity at 30 µM on rat mGlu3 was found to be 0.67%. At rat mGlu5, the “Fold selectivity (mGlu3 vs. mGlu5)” value is over 10. For the same molecule, the EC50 on rat mGlu5 (setting [2]) is over 30 µM.
For `Cc1ccccc1NCc1cc2n(n1)CCN(c1ccc(F)cc1)C2=O` [Compound 4, 5-(4-fluorophenyl)-2-((o-tolylamino)methyl)-6,7-dihydropyrazolo[1,5-a]pyrazin-4(5H)-one], the IC50 on rat mGlu3 (setting [1]) came out at 2390 nM. Moreover, on rat mGlu3, the remaining activity at 30 µM was determined as 2.62%. Moreover, on rat mGlu5 (setting [3]), the Emax at 30 µM is 42.2%. Further, the “Fold selectivity (mGlu3 vs. mGlu5)” value on rat mGlu5 is reported as over 4.1. The EC50 at rat mGlu5 (setting [2]) was over 10 µM.
For the molecule `C[C@H]1CN(c2ccc(F)cc2)C(=O)c2cc(CNc3cccc(F)c3)nn21` [Compound 47, (S)-5-(4-fluorophenyl)-2-(((3-fluorophenyl)amino)methyl)-7-methyl-6,7-dihydropyrazolo[1,5-a]pyrazin-4(5H)-one], at rat mGlu3, the remaining activity at 30 µM worked out at 1.77% and the IC50 worked out at 1840 nM. Moreover, at rat mGlu5 (setting [3]), the Emax at 30 µM was 78.3%. Besides, the “Fold selectivity (mGlu3 vs. mGlu5)” value on rat mGlu5 came out at 0.58. For the same molecule, the EC50 at rat mGlu5 (setting [2]) amounted to 1.07 µM.
With `C[C@@H]1CN(c2ccc(F)cc2)C(=O)c2cc(CNc3c(F)cccc3F)nn21` [Compound 72, (R)-2-(((2,6-difluorophenyl)amino)methyl)-5-(4-fluorophenyl)-7-methyl-6,7-dihydropyrazolo[1,5-a]pyrazin-4(5H)-one], the remaining activity at 30 µM at rat mGlu3 was found to be 4.1%. The Emax at 30 µM on rat mGlu5 (setting [3]) came out at 59.9%.
Regarding `O=C1c2cc(CNc3ccc(OC(F)F)cc3F)nn2CCN1c1cc(Cl)ccn1` [Compound 139, 5-(4-chloropyridin-2-yl)-2-(((4-(difluoromethoxy)-2-fluorophenyl)amino)methyl)-6,7-dihydropyrazolo[1,5-a]pyrazin-4(5H)-one], the half-maximal inhibitory concentration (IC50) at rat mGlu3 (setting [1]) is 1760 nM. On rat mGlu3, the remaining activity at 30 µM came out at 2.59%. In addition, the “Fold selectivity (mGlu3 vs. mGlu5)” value at rat mGlu5 was over 17. In addition, on rat mGlu5 (setting [2]), the EC50 is over 30 µM.
`O=C1c2cc(CNc3cccc(F)c3)nn2CCN1c1ccc(F)cc1` [Compound 7, 5-(4-fluorophenyl)-2-(((3-fluorophenyl)amino)methyl)-6,7-dihydropyrazolo[1,5-a]pyrazin-4(5H)-one]: the IC50 on rat mGlu3 (setting [1]) was determined as 1040 nM. Also, the remaining activity at 30 µM on rat mGlu3 was determined as 1.28%. The Emax at 30 µM at rat mGlu5 (setting [3]) amounted to 99%. In addition, at rat mGlu5, the “Fold selectivity (mGlu3 vs. mGlu5)” value is reported as 2.13. Also, the EC50 at rat mGlu5 (setting [2]) stood at 2.21 µM.
For the molecule `O=C1c2cc(CNc3ncccc3F)nn2CCN1c1ccc(F)cc1` [Compound 165, 5-(4-fluorophenyl)-2-(((3-fluoropyridin-2-yl)amino)methyl)-6,7-dihydropyrazolo[1,5-a]pyrazin-4(5H)-one], on rat mGlu3 (setting [1]), the IC50 turned out to be 2110 nM. Further, the remaining activity at 30 µM on rat mGlu3 was 1.66%. In addition, on rat mGlu5, the “Fold selectivity (mGlu3 vs. mGlu5)” value is over 14. Further, the EC50 at rat mGlu5 (setting [2]) was over 30 µM.
Consider `C[C@H]1CN(c2ccc(F)cc2)C(=O)c2cc(CNc3ccc(F)cc3)nn21` [Compound 57, (S)-5-(4-fluorophenyl)-2-(((4-fluorophenyl)amino)methyl)-7-methyl-6,7-dihydropyrazolo[1,5-a]pyrazin-4(5H)-one], for which, at rat mGlu3 (setting [1]), the IC50 stood at 2320 nM. Further, the remaining activity at 30 µM at rat mGlu3 was 0.96%. Moreover, on rat mGlu5 (setting [3]), the Emax at 30 µM was found to be 56.7%. The “Fold selectivity (mGlu3 vs. mGlu5)” value at rat mGlu5 is listed as 2.38. Moreover, on rat mGlu5 (setting [2]), the 50% effective concentration (EC50) was found to be 5.53 µM.
In the case of `O=C1c2cc(CNc3ccc(OC(F)F)cc3F)nn2CCN1c1cccc(F)n1` [Compound 138, 2-(((4-(difluoromethoxy)-2-fluorophenyl)amino)methyl)-5-(6-fluoropyridin-2-yl)-6,7-dihydropyrazolo[1,5-a]pyrazin-4(5H)-one], at rat mGlu3, the remaining activity at 30 µM is 2.05% and the IC50 was 821 nM. Besides, the “Fold selectivity (mGlu3 vs. mGlu5)” value on rat mGlu5 is given as over 36. In addition, the EC50 on rat mGlu5 (setting [2]) was over 30 µM.
Regarding `COc1ccc(N(C)Cc2cc3n(n2)CCN(c2cccc(F)c2Cl)C3=O)cc1` [Compound 126, 5-(2-chloro-3-fluorophenyl)-2-(((4-methoxyphenyl)(methyl)amino)methyl)-6,7-dihydropyrazolo[1,5-a]pyrazin-4(5H)-one], the IC50 at rat mGlu3 (setting [1]) was 1600 nM; at rat mGlu5 (compound noted as NAM or partial antagonist (PAnt) at mGlu5, glutamate EC80, read-out: rat mGlu5 EC50 or IC50) it was over 10 µM. In addition, at rat mGlu3, the remaining activity at 30 µM turned out to be 1.5%. Moreover, the Emax at 30 µM on rat mGlu5 (compound noted as NAM or partial antagonist (PAnt) at mGlu5, response at 30 μM as % of maximal glutamate response) came out at 56.8%. On rat mGlu5, the “Fold selectivity (mGlu3 vs. mGlu5)” value is over 6.2.
For the molecule `COc1ccc(N(C)Cc2cc3n(n2)CCN(c2c(F)cccc2F)C3=O)cc1` [Compound 110, 5-(2,6-difluorophenyl)-2-(((4-methoxyphenyl)(methyl)amino)methyl)-6,7-dihydropyrazolo[1,5-a]pyrazin-4(5H)-one], at rat mGlu3 (setting [1]), the IC50 was determined as 1640 nM. Besides, the remaining activity at 30 µM at rat mGlu3 was 1.75%. In addition, the “Fold selectivity (mGlu3 vs. mGlu5)” value on rat mGlu5 is reported as over 18. The EC50 at rat mGlu5 (setting [2]) was over 30 µM.
For `O=C1c2cc(CNc3ccc(OC(F)F)cc3F)nn2CCN1c1ccc(F)cn1` [Compound 146, 2-(((4-(difluoromethoxy)-2-fluorophenyl)amino)methyl)-5-(5-fluoropyridin-2-yl)-6,7-dihydropyrazolo[1,5-a]pyrazin-4(5H)-one], on rat mGlu3 (setting [1]), the IC50 amounted to 578 nM. On rat mGlu3, the remaining activity at 30 µM was 2.03%. Moreover, on rat mGlu5, the “Fold selectivity (mGlu3 vs. mGlu5)” value is given as over 51. In addition, on rat mGlu5 (setting [2]), the EC50 is over 30 µM.
With `Cc1ccc(NCc2cc3n(n2)[C@H](C)CN(c2ccc(F)cc2)C3=O)cc1` [Compound 58, (R)-5-(4-fluorophenyl)-7-methyl-2-((p-tolylamino)methyl)-6,7-dihydropyrazolo[1,5-a]pyrazin-4(5H)-one], the IC50 on rat mGlu3 (setting [1]) was 1830 nM. Further, on rat mGlu3, the remaining activity at 30 µM is 1.27%. Also, the “Fold selectivity (mGlu3 vs. mGlu5)” value on rat mGlu5 was over 16. For the same molecule, at rat mGlu5 (setting [2]), the EC50 was over 30 µM.
For `COc1ccc(N(C)Cc2cc3n(n2)CCN(c2ccc(Cl)cc2F)C3=O)cc1` [Compound 125, 5-(4-chloro-2-fluorophenyl)-2-(((4-methoxyphenyl)(methyl)amino)methyl)-6,7-dihydropyrazolo[1,5-a]pyrazin-4(5H)-one], at rat mGlu3 (setting [1]), the IC50 came out at 1380 nM. On rat mGlu3, the remaining activity at 30 µM was 1.47%. Moreover, the “Fold selectivity (mGlu3 vs. mGlu5)” value at rat mGlu5 is listed as over 21. In addition, the EC50 on rat mGlu5 (setting [2]) is over 30 µM.
The like results for `COc1ccc(N(C)Cc2cc3n(n2)CCN(c2cccc(F)c2)C3=O)cc1` [Compound 101, 5-(3-fluorophenyl)-2-(((4-methoxyphenyl)(methyl)amino)methyl)-6,7-dihydropyrazolo[1,5-a]pyrazin-4(5H)-one] were, in that order, 783 nM, 1.57%, over 38 and over 30 µM.
Take `O=C1c2cc(CNc3ccc(OC(F)F)c(F)c3)nn2CCN1c1ccc(F)cc1` [Compound 38, 2-(((4-(difluoromethoxy)-3-fluorophenyl)amino)methyl)-5-(4-fluorophenyl)-6,7-dihydropyrazolo[1,5-a]pyrazin-4(5H)-one]: the IC50 at rat mGlu3 (setting [1]) came out at 489 nM. At rat mGlu3, the remaining activity at 30 µM came out at 2.28%. Besides, on rat mGlu5 (setting [3]), the Emax at 30 µM worked out at 84.7%. Further, the “Fold selectivity (mGlu3 vs. mGlu5)” value at rat mGlu5 came to 3.19. Also, the EC50 at rat mGlu5 (setting [2]) came to 1.56 µM.
Consider `Cc1ccc(NCc2cc3n(n2)CCN(c2ccc(F)cc2)C3=O)c(F)c1` [Compound 35, 2-(((2-fluoro-4-methylphenyl)amino)methyl)-5-(4-fluorophenyl)-6,7-dihydropyrazolo[1,5-a]pyrazin-4(5H)-one], for which, on rat mGlu3 (setting [1]), the half-inhibitory concentration (IC50) is 799 nM. For the same molecule, the remaining activity at 30 µM on rat mGlu3 was 1.68%. For the same molecule, on rat mGlu5 (setting [3]), the Emax at 30 µM came to 97.4%. The “Fold selectivity (mGlu3 vs. mGlu5)” value on rat mGlu5 was 5.97. Also, on rat mGlu5 (setting [2]), the EC50 was determined as 4.77 µM.
The like results for `O=C1c2cc(CNc3c(F)cc(F)cc3F)nn2CCN1c1ccc(F)cc1` [Compound 33, 5-(4-fluorophenyl)-2-(((2,4,6-trifluorophenyl)amino)methyl)-6,7-dihydropyrazolo[1,5-a]pyrazin-4(5H)-one] were, in that order, 1270 nM, 1.82%, 89.7%, 0.87 and 1.11 µM.
On to `O=C1c2cc(CNc3ccc(OC(F)F)cc3F)nn2CCN1c1ccc(F)c(F)c1` [Compound 145, 2-(((4-(difluoromethoxy)-2-fluorophenyl)amino)methyl)-5-(3,4-difluorophenyl)-6,7-dihydropyrazolo[1,5-a]pyrazin-4(5H)-one], for which the IC50 at rat mGlu3 (setting [1]) was 800 nM. For the same molecule, the remaining activity at 30 µM at rat mGlu3 is 2.55%. Besides, at rat mGlu5, the “Fold selectivity (mGlu3 vs. mGlu5)” value is reported as over 37. Moreover, the 50% effective concentration (EC50) on rat mGlu5 (setting [2]) was over 30 µM.
